Measurements from patent publication US8952042B2, “FXR (NR1H4) binding and activity modulating compounds” (Phenex Pharmaceuticals AG, priority 2009, dated 2015).

What was measured:
[1] = target: T1, human FXR alpha ligand binding domain (Homo sapiens, UniProt Q96RI1); test: FRET activity assay (ligand mediated cofactor peptide interaction, LANCE); type: biochemical; conditions: potency range
T1 construct: made in house; host or cells: E. coli BL21(DE3), vector pDEST15
T1 sequence (Q96RI1 187-472 isoform Q96RI1-2): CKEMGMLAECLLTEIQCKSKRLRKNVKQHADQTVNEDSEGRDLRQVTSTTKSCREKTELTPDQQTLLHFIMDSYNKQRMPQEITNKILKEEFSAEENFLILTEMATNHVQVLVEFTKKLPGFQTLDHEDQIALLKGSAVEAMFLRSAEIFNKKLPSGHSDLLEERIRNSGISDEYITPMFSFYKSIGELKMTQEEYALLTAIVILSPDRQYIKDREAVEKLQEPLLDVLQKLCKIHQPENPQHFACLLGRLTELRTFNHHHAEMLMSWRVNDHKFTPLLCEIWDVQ
Protocol: Determination of a ligand mediated cofactor peptide interaction to quantify ligand binding to the nuclear receptor FXR was performed as follows: Preparation of human FXR alpha ligand binding domain: The human FXRalpha LBD was expressed in E. coli strain BL21(DE3) as an N-terminally GST tagged fusion protein. The DNA encoding the FXR ligand binding domain was cloned into vector pDEST15 (Invitrogen). Expression was under control of an IPTG inducible T7 promoter. The amino acid boundaries of the ligand binding domain were amino acids 187-472 of Database entry NM_005123 (RefSeq). Expression and purification of the FXR-LBD: An overnight preculture of a transformed E. coli strain was diluted 1:20 in LB-Ampicillin medium and grown at 30° C. to an optical density of OD600=0.4-0.6. Gene expression was then induced by addition of 0.5 mM IPTG. Cells were incubated an additional 6 h at 30° C., 180 rpm. Cells were collected by centrifugation (7000×g, 7 min, room temperature). Per liter of original cell culture, cells were resuspended in 10 mL lysis buffer (50 mM Glucose, 50 mM Tris pH 7.9, 1 mM EDTA and 4 mg/mL lysozyme) and left on ice for 30 min. Cells were then subjected to sonication and cell debris removed via centrifugation (22000×g, 30 min, 4° C.). Per 10 mL of supernatant 0.5 mL prewashed Glutathione 4B sepharose slurry (Qiagen) was added and the suspension kept slowly rotating for 1 h at 4° C. Glutathione 4B sepharose beads were pelleted by centrifugation (2000×g, 15 sec, 4° C.) and washed twice in wash buffer (25 mM Tris, 50 mM KCl, 4 mM MgCl2 and 1M NaCl). The pellet was resuspended in 3 mL elution buffer per liter of original culture (elution buffer: 20 mM Tris, 60 mM KCl, 5 mM MgCl2 and 80 mM glutathione added immediately prior to use as powder). The suspension was left rotating for 15 min at 4° C., the beads pelleted and eluted again with half the volume of elution buffer than the first time. The eluates were pooled and dialysed overnight in 20 mM Hepes buffer (pH 7.5) containing 60 mM KCl, 5 mM MgCl2 as well as 1 mM dithiothreitol and 10% (v/v) glycerol. The protein was analysed by SDS-Page.
The method measures the ability of putative ligands to modulate the interaction between the purified bacterial expressed FXR ligand binding domain (LBD) and a synthetic biotinylated peptide based on residues 676-700 of SRC-1 (LCD2, 676-700). […] The ligand binding domain (LBD) of FXR was expressed as fusion protein with GST in BL-21 cells using the vector pDEST15. Cells were lysed by sonication, and the fusion proteins purified over glutathione sepharose (Pharmacia) according to the manufacturers instructions. For screening of compounds for their influence on the FXR-peptide interaction, the Perkin Elmer LANCE technology was applied. This method relies on the binding dependent energy transfer from a donor to an acceptor fluorophor attached to the binding partner of interest. For ease of handling and reduction of background from compound fluorescence LANCE technology makes use of generic fluorophore labels and time resolved detection Assays were done in a final volume of 25 μL in a 384 well plate, in a Tris-based buffer (20 mM Tris-HCl pH 7.5; 60 mM KCl, 5 mM MgCl2; 35 ng/μL BSA), containing 20-60 ng/well recombinantly expressed FXR-LBD fused to GST, 200-600 nM N-terminally biotinylated peptide, representing SRC1 aminoacids 676-700, 200 ng/well Streptavidin-xIAPC conjugate (Prozyme) and 6-10 ng/well Eu W1024—antiGST (Perkin Elmer). DMSO content of the samples was kept at 1%. After generation of the assay mix and diluting the potentially FXR modulating ligands, the assay was equilibrated for one hour in the dark at room temperature in FIA-plates black 384 well (Greiner). The LANCE signal was detected by a Perkin Elmer VICTOR2V™ Multilabel Counter. The results were visualized by plotting the ratio between the emitted light at 665 and 615 nm.

[2] = UV photostability, irradiation at 254 nm, 1H NMR; type: physicochemical; conditions: 70 h UV irradiation at 254 nm
Protocol: The compounds of interest were dissolved using ethanol and their UV spectrum was analyzed to determine their λmax to establish an irradiation wavelength to be used in the study (see FIG. 2). The best wavelength for testing the UV stability of the —CH═CH— double bond was determined to be 254 nm. Further material of the compounds was then dissolved in deuterated ethanol and the ^1H NMRs (400 MHz) analyzed (T=0). Each sample was then recovered from the NMR tube and subjected to UV irradiation (254 nm) for 4 h, 15 h and 70 h. At the respective timepoints the individual samples were re-analyzed by ^1H NMR and the signal for the —CH═CH— protons evaluated to assess the percent of remaining intact double bond. Other changes in the chemical shift signals were also analyzed for further changes on the overall structure of the molecules.

[3] = UV stability, irradiation at 366 nm on a DMSO thin film, LCMS; type: physicochemical; conditions: 366 nm emission, 250 μM in DMSO thin film, FIG. 3m
Protocol: A different, more rapid experimental setup was used to investigate a broader set of compounds in comparison to GW4064. The substances were dissolved in reagent grade DMSO (99.5%, Karl Roth) at a concentration of 250 μM. DMSO solution was spread over a silica glass slide to a depth of approximately 2 mm and irradiated using a UV lamp set to 366 nm emission (Benda Instruments, Wiesloch Germany) using an 8 W tube set approximately 2.5 cm from the target materials. The solution was sampled prior to irradiation (T=0 min) and at various intervals thereafter. Stocks and samples were maintained in foil wrapped tubes out of direct light. Samples were injected (2 μL) directly onto a LCMS System for analysis without any further preparation.

| EC50 [1] [nM] | behaviour in 1H NMR spectrum after prolonged UV irradiation [2] | photostability compared to GW4064 [3] | Compound |
| --- | --- | --- | --- |
| 10 to 100 | inert | – | O=C(O)c1cccc(C2CC2c2ccc(OCc3c(-c4c(Cl)cccc4Cl)noc3C3CC3)cc2Cl)c1 (racemic) [Example 4, 3-(2-(2-chloro-4-((5-cyclopropyl-3-(2,6-dichlorophenyl)isoxazol-4-yl)methoxy)phenyl)-cyclopropyl)benzoic acid] |
| > 100 | – | higher photostability | O=C(O)c1ccc(C2CC2c2ccc(OCc3c(-c4c(Cl)cccc4Cl)noc3C3CC3)cc2Cl)cc1 (racemic) [Example 12, 4-(2-(2-chloro-4-((5-cyclopropyl-3-(2,6-dichlorophenyl)isoxazol-4-yl)methoxy)phenyl)cyclopropyl)benzoic acid] |
